From patent US20220143053A1, “ANTI-MICROBIAL METHODS AND MATERIALS” (priority 2019, published 2022)
Converted amounts (≈) assume the structure as drawn. Where two headings read alike, the source gives them in different places.

Columns and labels:
[1] = systemic administration; cited from earlier work
[2] = system: methicillin-sensitive Staphylococcus aureus (MSSA, ATCC 12600); assay: Minimum inhibitory concentration (MIC) test, CLSI M07-A10; type: cell-based
Method: (§1) Antibacterial activity of sodium channel blockers (lidocaine, bupivacaine, tetracaine, procaine, prilocaine), NSAIDs (ketorolac and tolfenamic acid), antioxidants (resveratrol and curcumin), and antibiotics (gentamicin and vancomycin) was performed against methicillin-sensitive Staphylococcus aureus (MSSA, ATCC 12600). The bacterial susceptibility tests were conducted as outlined in the Clinical and Laboratory Standard Institute (CLSI) protocol M07-A10. Bacterial suspensions with a concentration of approximately 5*10^5 CFU/ml were prepared in Lysogeny broth and mixed with the tested drugs. […] Minimum bactericidal concentration (MBC) was determined as the minimum concentration of the tested drug needed to kill 99.9% of bacteria (or 3−log 10 reduction). […] The MBC was measured for lidocaine, bupivacaine, ketorolac, and gentamicin.

[3] = system: Bacillus cereus, MSSA, MRSA, Escherichia coli, Klebsiella pneumoniae, Pseudomonas aeruginosa, Enterobacter aerogenes, and Salmonella Choleraesuis; conditions: eight listed bacteria; cited from earlier work
[4] = system: MSSA (ATCC 14775); assay: Time-kill experiments; type: cell-based, Staphylococcus aureus; conditions: between 4 and 24 h
Method: Time-kill curves employing 3 time-points (0, 4, 24 hours) over the period of 24 hours were obtained for characterization of the antibacterial activity of selected combinations against MSSA (ATCC® 14775). Tested combinations of drugs were incubated with 5*10^5 CFU/ml of bacteria in Lysogeny broth at 37° C. At a given time-point, aliquots were collected, and bacterial concentrations were determined using the spread-plate method. The minimum accurately countable concentration was 10^2 CFU/ml. […] The increase of bacterial concentration represented antagonism.

[5] = system: methicillin-sensitive Staphylococcus aureus (MSSA, ATCC 12600); assay: Minimum bactericidal concentration (MBC) test; type: cell-based; conditions: MSSA ATCC 12600, kill 99.9% of bacteria
Method: as §1

[6] = system: methicillin-sensitive S. aureus; conditions: cited from earlier work
[7] = Drug solubility limit in growth medium; type: physicochemical; conditions: plasma or biological fluid
[8] = Staphylococcus aureus, MSSA ATCC 12600, Lysogeny broth, 24-hour incubation at 37° C., read-out: MIC

CN[C@H](CC(C)C)C(=O)N[C@H]1C(=O)N[C@@H](CC(N)=O)C(=O)N[C@H]2C(=O)N[C@H]3C(=O)N[C@H](C(=O)N[C@H](C(=O)O)c4cc(O)cc(O)c4-c4cc3ccc4O)[C@H](O)c3ccc(c(Cl)c3)Oc3cc2cc(c3O[C@@H]2O[C@H](CO)[C@@H](O)[C@H](O)[C@H]2O[C@H]2C[C@](C)(N)[C@H](O)[C@H](C)O2)Oc2ccc(cc2Cl)[C@H]1O [Vancomycin]
concentration in the bone relative to that in the serum [1]: ~20% | MIC ([2]; Staphylococcus aureus, 24 h): 0.625 µg/mL (≈ 0.000431 mM)

CC(C)Cc1ccc(C(C)C(=O)O)cc1 (stereo not shown) [Ibuprofen]
antibacterial activity [3]: measurable antibacterial activity

Cc1c(Cl)cccc1Nc1ccccc1C(=O)O [Tolfenamic Acid]
MIC [2, 8]: 250 µg/mL (≈ 0.955 mM)

Gentamicin
regrowth in time-kill curves [4]: regrowth phase | MIC ([2]; MSSA ATCC 12600, Lysogeny broth, 24-hour incubation at 37° C.): 4 µg/mL | MBC [5]: 2 µg/mL

CCN(CC)CCOC(=O)c1ccc(N)cc1 [Procaine]
MIC [2, 8]: 100000 µg/mL (≈ 423 mM)

CCN(CC)CC(=O)Nc1c(C)cccc1C [Lidocaine]
MIC [2, 8]: 15600 µg/mL (≈ 66.7 mM) | antibacterial effects [6]: measurable antibacterial effects

Oc1ccc(C=Cc2cc(O)cc(O)c2)cc1 [Resveratrol]
MIC [2, 8]: 125 µg/mL (≈ 0.548 mM)

CCCCN1CCCCC1C(=O)Nc1c(C)cccc1C (stereo not shown) [Bupivacaine]
MIC [2, 8]: 1880 µg/mL (≈ 6.5 mM) | antibacterial effects [6]: measurable antibacterial effects | solubility [7]: ~15 mg/mL (≈ 52 mM)

COc1cc(/C=C/C(=O)CC(=O)/C=C/c2ccc(O)c(OC)c2)ccc1O [Curcumin]
MIC [2, 8]: 188 µg/mL (≈ 0.509 mM)

Cc1cccc(Nc2ccccc2C(=O)O)c1C [mefenamic acid]
antibacterial activity [3]: measurable antibacterial activity

O=C(c1ccccc1)c1ccc2n1CCC2C(=O)O (stereo not shown) [Ketorolac]
MIC [2, 8]: 3120 µg/mL (≈ 12.2 mM) | solubility [7]: ~18 mg/mL (≈ 70.5 mM)

CC(=O)Oc1ccccc1C(=O)O [aspirin]
antibacterial activity [3]: measurable antibacterial activity

CCCNC(C)C(=O)Nc1ccccc1C (stereo not shown) [Prilocaine]
MIC [2, 8]: 25000 µg/mL (≈ 113 mM)

O=C(O)Cc1ccccc1Nc1c(Cl)cccc1Cl [diclofenac]
antibacterial activity [3]: measurable antibacterial activity

CCCCNc1ccc(C(=O)OCCN(C)C)cc1 [Tetracaine]
MIC [2, 8]: 938 µg/mL (≈ 3.55 mM)
